Assay results reported in patent US4156777A, “Process for producing glucopyranose-nitrosourea compounds and novel compounds included therein” (Tokyo Tanabe Company, Limited, priority 1977, dated 1979).
In brackets after ≈: the same amount, converted by molar mass.

Key:
[1] = Solubility in water at 25° C.; format: physicochemical; conditions: amount soluble in 1 ml water at 25° C.
[2] = Effect on respiration, blood pressure, heart rate and electrocardiogram; format: in vivo, Beagle dogs; conditions: dog, in vivo, iv; injected into brachial veins, anesthetized Beagle dogs; read-out: maximum dosage not effected on respiration, blood pressure, heart rate and electrocardiogram
Description: Beagle dogs of both sexes weighing about 10 kg were anesthetized with pentobarbital sodium (30 mg/kg, i.v.), and immobilized in the supine position. Test compounds dissolved in physiological saline solution were injected into the brachial veins of the animals and the arteries at cannulated positions were treated with heparin sodium as anticoagulant.
The respiration rate of each animal was estimated with a respirometer (Nihonkohden, RP-3) through a tracheal cannula, the blood pressure with an electro-haemodynamometer (Nihonkohden, MP-4T) attached surgically to the femoral artery, and the heart rate with a pulse-rate tachometer (Nihonkohden, RT-2) through the trigger pulse of the blood pressure.

[3] = Diabetogenic activity (blood glucose concentration after intravenous administration); format: in vivo, male Wister rats
Description: 40-96 mg/kg of the test compounds were administered intravenously to starved male Wister rats weighing 240-260 g each, and the blood glucose concentrations of the test animals were estimated by the glucose exidase method [L. L. Saloman et al: Anal. Chem., 31 (1959), 453], in which test the compounds were dissolved in physiological saline solution just before administration. […]

[4] = known compounds, generally seen; cited from earlier work
Acute toxicity (LD50) = format: in vivo, male Wister rats; conditions: rat, in vivo, after 1 week
Description: Test compounds were dissolved in physiological saline solution just before their dosage and administered to male Wister rats, intraperitoneally, intravenously and orally. After 1 week, the LD50 of each compound was calculated from the mortality of the test animals by the Lichfield-Wilcoxon Method.
i.v.: intravenous administration

leukemia L-1210 = experiment: Antitumor activity against leukemia L-1210 implanted in BDF1 mice (ILS, 60 days survivors); format: in vivo
Description: Test compounds were given to BDF1 mice 24 hrs after implantation of 10^6 cells of leukemia L-1210 in each animal, through single intraperitoneal administration, intraperitoneal administration for 5 successive days, single oral administration or oral administration for 5 successive days, whereupon the increase in life span (referred to as "ILS") and number of 60 days survivors of test animals were estimated, said test of antitumor activity being that according to the method of the National Cancer Center, Tokyo [A. Hoshi et al: Farmashia, 9 (1973), 464]. In the tests, the compounds were dissolved in physiological saline solution just before administration.
^a i.p.: intraperitoneal administration p.o: oral administration
D1 : single administration D1~5 : administration for 5
^b percentage calculated from mean survival time over control
^c survivors/six animals

In the case of `CO[C@H]1O[C@H](CO)[C@@H](O)[C@H](O)[C@H]1NC(=O)N(CCCl)N=O` [Example 2MCαG, 1-(2-chloroethyl)-3-(methyl α-D-glucopyranos-2-yl)-1-nitrosourea], the solubility [1] is reported as 45 mg/mL (≈ 137 mM), the NOAEL [2] is reported as 30 mg/kg and the “Blood Glucose Concentration” value ([3]; 40 mg/kg i.v., 0 hr after treatment) is reported as 71.0 mg/dL. The “Blood Glucose Concentration” value ([3]; 40 mg/kg i.v., 2 hr after treatment) was 73.5 mg/dL, the “Blood Glucose Concentration” value ([3]; 40 mg/kg i.v., 4 hr after treatment) was 70.6 mg/dL and the “Blood Glucose Concentration” value ([3]; 40 mg/kg i.v., 7 hr after treatment) was 72.3 mg/dL. For the same molecule, the “Blood Glucose Concentration” value ([3]; 40 mg/kg i.v., 10 hr after treatment) was 68.3 mg/dL, the “Blood Glucose Concentration” value ([3]; 40 mg/kg i.v., 24 hr after treatment) was 72.7 mg/dL and the “Blood Glucose Concentration” value ([3]; 40 mg/kg i.v., 48 hr after treatment) was 70.4 mg/dL. For the same molecule, the “Blood Glucose Concentration” value ([3]; 60 mg/kg i.v., 0 hr after treatment) was 70.4 mg/dL, the “Blood Glucose Concentration” value ([3]; 60 mg/kg i.v., 2 hr after treatment) was 74.2 mg/dL and the “Blood Glucose Concentration” value ([3]; 60 mg/kg i.v., 4 hr after treatment) was 68.2 mg/dL. The “Blood Glucose Concentration” value ([3]; 60 mg/kg i.v., 7 hr after treatment) was 68.7 mg/dL, the “Blood Glucose Concentration” value ([3]; 60 mg/kg i.v., 10 hr after treatment) was 67.5 mg/dL and the “Blood Glucose Concentration” value ([3]; 60 mg/kg i.v., 24 hr after treatment) was 73.8 mg/dL. The “Blood Glucose Concentration” value ([3]; 60 mg/kg i.v., 48 hr after treatment) was 70.8 mg/dL, the “blood glucose concentrations versus control, in words” value ([3]; i.v., rats) was “substantially the same blood glucose concentrations as that in the control” and the “diabetogenic activity, decreasing order” value [4] was “SZ>DCNU>GANU> 2MCαG≈6MCαG”. The LD50 at 168 h (Acute toxicity (LD50); ip) was 48 mg/kg, the LD50 at 168 h (Acute toxicity (LD50); po) was 49 mg/kg and the ILS (leukemia L-1210; 0.5 mg/kg/day, i.p. D1~5) was 15%. The ILS (leukemia L-1210; 1.0 mg/kg/day, i.p. D1~5) was 48%, the ILS (leukemia L-1210; 2.0 mg/kg/day, i.p. D1~5) was greater than 249% and the “Survivors (60 days)” value (leukemia L-1210; 2.0 mg/kg/day, i.p. D1~5) was 1/6. The ILS (leukemia L-1210; 2.0 mg/kg/day, p.o. D1~5) was greater than 143%, the “Survivors (60 days)” value (leukemia L-1210; 2.0 mg/kg/day, p.o. D1~5) was 1/6 and the ILS (leukemia L-1210; 3.2 mg/kg/day, i.p. D1~5) was greater than 394%. The “Survivors (60 days)” value (leukemia L-1210; 3.2 mg/kg/day, i.p. D1~5) was 3/6, the ILS (leukemia L-1210; 3.2 mg/kg/day, p.o. D1~5) was greater than 246% and the “Survivors (60 days)” value (leukemia L-1210; 3.2 mg/kg/day, p.o. D1~5) was 2/6. The ILS (leukemia L-1210; 4.0 mg/kg/day, i.p. D1~5) was greater than 349%, the “Survivors (60 days)” value (leukemia L-1210; 4.0 mg/kg/day, i.p. D1~5) was 2/6 and the ILS (leukemia L-1210; 6.3 mg/kg/day, i.p. D1) was greater than 128%. For the same molecule, the ILS (leukemia L-1210; 6.3 mg/kg/day, i.p. D1~5) was greater than 198%, the “Survivors (60 days)” value (leukemia L-1210; 6.3 mg/kg/day, i.p. D1~5) was 1/6 and the ILS (leukemia L-1210; 6.3 mg/kg/day, p.o. D1~5) was greater than 380%. The “Survivors (60 days)” value (leukemia L-1210; 6.3 mg/kg/day, p.o. D1~5) was 3/6, the ILS (leukemia L-1210; 8.0 mg/kg/day, i.p. D1) was greater than 432% and the “Survivors (60 days)” value (leukemia L-1210; 8.0 mg/kg/day, i.p. D1) was 3/6. For the same molecule, the ILS (leukemia L-1210; 10.0 mg/kg/day, i.p. D1) was greater than 717%, the “Survivors (60 days)” value (leukemia L-1210; 10.0 mg/kg/day, i.p. D1) was 6/6 and the ILS (leukemia L-1210; 10.0 mg/kg/day, i.p. D1~5) was greater than 190%. For the same molecule, the “Survivors (60 days)” value (leukemia L-1210; 10.0 mg/kg/day, i.p. D1~5) was 1/6, the ILS (leukemia L-1210; 12.5 mg/kg/day, i.p. D1~5) was greater than 160% and the “Survivors (60 days)” value (leukemia L-1210; 12.5 mg/kg/day, i.p. D1~5) was 1.6 survivors/six animals. For the same molecule, the ILS (leukemia L-1210; 12.5 mg/kg/day, p.o. D1~5) was greater than 211%, the “Survivors (60 days)” value (leukemia L-1210; 12.5 mg/kg/day, p.o. D1~5) was 2/6 and the ILS (leukemia L-1210; 20.0 mg/kg/day, i.p. D1) was greater than 717%. The “Survivors (60 days)” value (leukemia L-1210; 20.0 mg/kg/day, i.p. D1) was 6/6, the ILS (leukemia L-1210; 20.0 mg/kg/day, i.p. D1~5) was 58% and the ILS (leukemia L-1210; 25.0 mg/kg/day, i.p. D1) was greater than 539%. For the same molecule, the “Survivors (60 days)” value (leukemia L-1210; 25.0 mg/kg/day, i.p. D1) was 4/6.
